Test results from ChEMBL document CHEMBL5543126, “Combinatorial Ubiquitination REal-time PROteolysis (CURE-PROs): A Modular Platform for Generating Reversible, Self-Assembling Bifunctional Targeted Degraders” (J Med Chem, 2024).

Assays:
[1] = biological target: T1, von Hippel-Lindau disease tumor suppressor/Bromodomain-containing protein 4 (Homo sapiens, UniProt O60885+P40337); assay: PROTAC activity at BRD4/VHL in human MCF7 cells assessed as induction of BRD4 degradation by measuring residual activity at 100 nM incubated for 24 hrs by Western blot analysis; type: cell-based
T1 sequence (P40337 whole entry, looked up, other chains not shown): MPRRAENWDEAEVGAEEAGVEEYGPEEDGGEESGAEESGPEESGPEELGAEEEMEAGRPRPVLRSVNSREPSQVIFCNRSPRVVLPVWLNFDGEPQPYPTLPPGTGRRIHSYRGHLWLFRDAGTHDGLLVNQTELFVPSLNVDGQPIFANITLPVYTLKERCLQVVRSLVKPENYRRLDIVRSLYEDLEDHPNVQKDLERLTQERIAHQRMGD

[2] = biological target: T1, von Hippel-Lindau disease tumor suppressor/Bromodomain-containing protein 4; assay: (§1) PROTAC activity at BRD4/VHL in human MCF7 cells assessed as induction of BRD4 degradation by measuring residual activity at 1 uM incubated for 24 hrs in presence of 3 uM VHL based ligand (2S,4R)-1-((S)-2-(2,3-dihydroxybenzamido)-3,3-dimethylbutanoyl)-4-hydroxy-N-(4-(4-methylthiazol-5-yl)benzyl)pyrrolidine-2-carboxamide by Western blot based Combinatorial Ubiquitination Real-time PROteolysis analysis; type: cell-based
[3] = biological target: T1, von Hippel-Lindau disease tumor suppressor/Bromodomain-containing protein 4; assay: as §1, with “VHL/BRD4” for “BRD4/VHL”, “HEK293” for “human MCF7”, “Tmax” for “residual activity”, “measured every 15 mins” for “incubated”, “of” for “of 3 uM”, “HiBiT” for “Western blot”; type: cell-based
[4] = Metabolic stability in human liver microsome at 1 uM measured upto 60 mins in presence of NADPH/UDPGA by LC-MS/MS analysis; type: ADME; details: liver microsomes, read-out: Stability
[5] = Half life in C57BL/6 mouse at 10 mg/kg, ip measured upto 24 hrs by LC-MS/MS analysis; type: ADME, organism-based; details: in vivo
[6] = Metabolic stability in C57BL/6 mouse liver microsome at 1 uM measured upto 60 mins in presence of NADPH/UDPGA by LC-MS/MS analysis; type: ADME, microsomes
[7] = biological target: T1, von Hippel-Lindau disease tumor suppressor/Bromodomain-containing protein 4; assay: as §1, with “at 100 nM” for “at 1 uM”, “of 10” for “of 3”; type: cell-based
[8] = Cmax in C57BL/6 mouse at 10 mg/kg, ip measured upto 24 hrs by LC-MS/MS analysis; type: ADME, organism-based; details: in vivo
[9] = AUClast in C57BL/6 mouse at 10 mg/kg, ip measured upto 24 hrs by LC-MS/MS analysis; type: ADME, organism-based; details: in vivo
[10] = biological target: T1, von Hippel-Lindau disease tumor suppressor/Bromodomain-containing protein 4; assay: PROTAC activity at BRD4/VHL in human MCF7 cells assessed as induction of BRD4 degradation by measuring residual activity at 1 uM incubated for 24 hrs by Western blot analysis; type: cell-based
[11] = biological target: T1, von Hippel-Lindau disease tumor suppressor/Bromodomain-containing protein 4; assay: PROTAC activity at VHL/BRD4 in HEK293 cells assessed as induction of BRD4 degradation by measuring Tmax at 0.3 uM measured every 15 mins for 24 hrs in presence of VHL based ligand (2S,4R)-1-((S)-2-(2,3-dihydroxybenzamido)-3,3-dimethylbutanoyl)-4-hydroxy-N-(4-(4-methylthiazol-5-yl)benzyl)pyrrolidine-2-carboxamide by HiBiT based Combinatorial Ubiquitination Real-time PROteolysis analysis; type: cell-based
[12] = biological target: T1, von Hippel-Lindau disease tumor suppressor/Bromodomain-containing protein 4; assay: PROTAC activity at BRD4/VHL in human MCF7 cells assessed as induction of BRD4 degradation by measuring residual activity at 3 uM incubated for 24 hrs by Western blot analysis; type: cell-based
[13] = Metabolic stability in C57BL/6 mouse liver microsome at 1 uM measured upto 60 mins in absence of NADPH/UDPGA by LC-MS/MS analysis; type: ADME; details: liver microsomes, read-out: Stability
[14] = Metabolic stability in C57BL/6 mouse liver microsome assessed as half life at 1 uM measured upto 60 mins by LC-MS/MS analysis; type: ADME, microsomes
[15] = biological target: T1, von Hippel-Lindau disease tumor suppressor/Bromodomain-containing protein 4; assay: as §1, with “100 nM” for “1 uM”; type: cell-based
[16] = biological target: T1, von Hippel-Lindau disease tumor suppressor/Bromodomain-containing protein 4; assay: PROTAC activity at BRD4/VHL in human MCF7 cells assessed as induction of BRD4 degradation by measuring residual activity at 300 nM incubated for 24 hrs by Western blot analysis; type: cell-based
[17] = biological target: T1, von Hippel-Lindau disease tumor suppressor/Bromodomain-containing protein 4; assay: PROTAC activity at BRD4/VHL in human MCF7 cells assessed as induction of BRD4 degradation by measuring residual activity at 10 uM incubated for 24 hrs by Western blot analysis; type: cell-based
[18] = biological target: T1, von Hippel-Lindau disease tumor suppressor/Bromodomain-containing protein 4; assay: as §1, with “at 10” for “at 1”, “of” for “of 3 uM”; type: cell-based
[19] = biological target: T1, von Hippel-Lindau disease tumor suppressor/Bromodomain-containing protein 4; assay: as §1, with “at 10” for “at 1”, “of 300 nM” for “of 3 uM”; type: cell-based
[20] = biological target: T1, von Hippel-Lindau disease tumor suppressor/Bromodomain-containing protein 4; assay: as §1, with “300 nM” for “3 uM”; type: cell-based
[21] = Tmax in C57BL/6 mouse at 10 mg/kg, ip measured upto 24 hrs by LC-MS/MS analysis; type: ADME, organism-based; details: in vivo
[22] = biological target: T1, von Hippel-Lindau disease tumor suppressor/Bromodomain-containing protein 4; assay: PROTAC activity at BRD4/VHL in human MCF7 cells assessed as induction of BRD4 degradation by measuring residual activity at 30 nM incubated for 24 hrs by Western blot analysis; type: cell-based
[23] = Metabolic stability in human liver microsome assessed as half life at 1 uM measured upto 60 mins by LC-MS/MS analysis; type: ADME; details: liver microsomes
[24] = Metabolic stability in human liver microsome at 1 uM measured upto 60 mins in absence of NADPH/UDPGA by LC-MS/MS analysis; type: ADME; details: liver microsomes, read-out: Stability
[25] = biological target: T1, von Hippel-Lindau disease tumor suppressor/Bromodomain-containing protein 4; assay: (§2) PROTAC activity at BRD4/VHL in human MCF7 cells assessed as induction of BRD4 degradation by measuring residual activity at 300 nM incubated for 24 hrs in presence of 100 nM BRD4 based ligand ((4S)-6-(4-chlorophenyl)-4-(2-(ethylamino)-2-oxoethyl)-1-methyl4Hbenzo[f][1,2,4]triazolo [4,3-a][1,4]diazepin-8-yl)boronic acid by Western blot based Combinatorial Ubiquitination Real-time PROteolysis analysis; type: cell-based
[26] = biological target: T1, von Hippel-Lindau disease tumor suppressor/Bromodomain-containing protein 4; assay: PROTAC activity at VHL/BRD4 in HEK293 cells assessed as induction of BRD4 degradation by measuring degradation rate at 3 uM measured every 15 mins for 24 hrs in presence of BRD4 based ligand ((4S)-6-(4-chlorophenyl)-4-(2-(ethylamino)-2-oxoethyl)-1-methyl4Hbenzo[f][1,2,4]triazolo [4,3-a][1,4]diazepin-8-yl)boronic acid by HiBiT based Combinatorial Ubiquitination Real-time PROteolysis analysis; type: cell-based
[27] = biological target: T1, von Hippel-Lindau disease tumor suppressor/Bromodomain-containing protein 4; assay: as §2, with “3 uM” for “300 nM”, “10 uM” for “100 nM”; type: cell-based
[28] = biological target: T1, von Hippel-Lindau disease tumor suppressor/Bromodomain-containing protein 4; assay: as §2, with “10 uM” for “100 nM”; type: cell-based
[29] = biological target: T1, von Hippel-Lindau disease tumor suppressor/Bromodomain-containing protein 4; assay: as §2, with “3 uM” for “300 nM”, “300” for “100”; type: cell-based

SMILES	Activity [1]	remaining at 1 h, 1 µM [4]	half-life [5]	Cmax [8]	AUC(0-t) at 24 h [9]	Activity [10]	Activity [12]	remaining at 1 h, 1 µM [13]	Activity [16]	Activity [17]	Tmax [21]	Activity [22]	half-life at 1 µM [23]	remaining at 1 h, 1 µM [24]	also measured
CCNC(=O)C[C@@H]1N=C(c2ccc(Cl)cc2)c2cc(B(O)O)ccc2-n2c(C)nnc21	121%	107%	6.3 h	1480 ng/mL	1860 ng·h/mL	91%	71%	100%	147%	68%	0.5 h	116%	> 1 h	101%	Activity [2]: 22%; Tmax [3]: 19.5 h; Stability ([6]; mouse, microsomes, 1 h, 1 µM): 112%; Activity [7]: 87%; Tmax [11]: 7.75 h; t1/2 ([14]; mouse, microsomes, 1 h, 1 µM): 0.483 h; Activity [15]: 74%; Activity [18]: 95%; Activity [19]: 48%; Activity [20]: 48%
Cc1ncsc1-c1ccc(CNC(=O)[C@@H]2C[C@@H](O)CN2C(=O)[C@@H](NC(=O)c2cccc(O)c2O)C(C)(C)C)cc1	108%	73%	6.3 h	1570 ng/mL	2340 ng·h/mL	92%	113%	83%	86%	95%	0.5 h	102%	> 1 h	87%	Activity [25]: 72%; remaining at 1 h, 1 µM ([6]; C57BL/6, mouse, liver microsomes, read-out: Stability): 24%; half-life at 1 µM ([14]; C57BL/6, mouse, liver microsomes): > 1 h; Activity [26]: 0.908 h⁻¹; Activity [27]: 16%; Activity [28]: 40%; Activity [29]: 39%
